Source: US4088793A, “Control of nitrosamine formation in nitrite cured meat” (Canada Packers Limited, priority 1977, dated 1978)

Experiments:
experimental animals = details: tests on experimental animals; cited from earlier work
[1] = Volatile nitrosamine content of cook-out fat from fried nitrite-cured bacon slices streaked with test compound; details: for blocking of formation of nitrosamines: 20 ppm level of incorporation in the meat; for inhibition of nitrosamine formation: in comparison with the untreated controls
From the text: The mechanism by which the 1,2-dihydro- and 1,2,3,4-tetrahydro-6-hydroxyquinoline nitroxides interfere with the formation of nitrosamines at high temperature is not completely understood. However, the invention is not limited by any particular theory of operation. It has been shown by a series of tests with representative compounds that up to 100% of the nitrosamines which normally appear in fried bacon have been eliminated.
The nitroxide compounds from ethoxyquin and from dihydroethoxyquin, prepared as in Examples 1 and 2, respectively, were dissolved in separate portions of winterized soya oil to provide a 4.5% concentration and the resulting solutions were streaked on bacon slices, which had undergone a conventional nitrite cure and plant processing, in quantities providing levels of 1,2-dihydro-2,2,4-trimethyl-6-hydroxy-quinoline nitroxide of from 1 ppm to 100 ppm in the meat for one series of tests and levels of 1 - 20 ppm of the corresponding 1,2,3,4-tetrahydroquinoline nitroxide compound in the meat for another series of tests. Control slices of bacon were streaked with the oil alone. The bacon slices were fried under standardized conditions and the cook-out fat was analyzed for volatile nitrosamine content.

For `O=NN1CCCC1` [N-nitrosopyrrolidine], the carcinogenicity (experimental animals) is given as “carcinogenic”.
For `CN(C)N=O` [dimethylnitrosamine], the carcinogenicity (experimental animals) is listed as “carcinogenic”.
In the case of “1,2,3,4-tetrahydro-2,2,4-trimethyl-6-hydroxy-quinoline nitroxide [Nitroxide from Dihydro Ethoxyquin]”, the “blocking of formation of nitrosamines” value [1] was “essentially blocked formation of nitrosamines”, the “Nitrosamines In Cook-Out Fat, Test Product” value (“Nitrosamines In Cook-Out Fat” for short) ([1]; Example 13: 20 ppm in meat, control product 35 ppb) was 3 ppb and the “Nitrosamines In Cook-Out Fat” value ([1]; Example 14: 10 ppm in meat, control product 35 ppb) was 13 ppb. For the same compound, the “Nitrosamines In Cook-Out Fat” value ([1]; Example 15: 1 ppm in meat, control product 35 ppb) was 20 ppb, the “Nitrosamines In Cook-Out Fat” value ([1]; Example 16: 20 ppm in meat, control product 36 ppb, figures below 3 ppb not reliable) was 2 ppb and the “Nitrosamines In Cook-Out Fat” value ([1]; Example 17: 10 ppm in meat, control product 36 ppb) was 6 ppb. The “Nitrosamines In Cook-Out Fat” value ([1]; Example 18: 1 ppm in meat, control product 36 ppb) was 22 ppb and the “inhibition of nitrosamine formation” value [1] was “excellent inhibition of nitrosamine formation”.
With “1,2-dihydro-2,2,4-trimethyl-6-hydroxy-quinoline nitroxide [Nitroxide from Ethoxyquin]” the “blocking of formation of nitrosamines” value [1] was “essentially blocked formation of nitrosamines”, the “Nitrosamines In Cook-Out Fat” value ([1]; Example 3: 100 ppm in meat, control product 18 ppb, figures below 3 ppb not reliable) was 0 ppb and the “Nitrosamines In Cook-Out Fat” value ([1]; Example 4: 50 ppm in meat, control product 19 ppb, figures below 3 ppb not reliable) was 0 ppb. The “Nitrosamines In Cook-Out Fat” value ([1]; Example 5: 10 ppm in meat, control product 19 ppb) was 3 ppb, the “Nitrosamines In Cook-Out Fat” value ([1]; Example 6: 1 ppm in meat, control product 19 ppb) was 13 ppb and the “Nitrosamines In Cook-Out Fat” value ([1]; Example 7: 20 ppm in meat, control product 8 ppb, figures below 3 ppb not reliable) was 0 ppb. The “Nitrosamines In Cook-Out Fat” value ([1]; Example 8: 10 ppm in meat, control product 8 ppb, figures below 3 ppb not reliable) was 0 ppb, the “Nitrosamines In Cook-Out Fat” value ([1]; Example 9: 1 ppm in meat, control product 8 ppb, figures below 3 ppb not reliable) was 2 ppb and the “Nitrosamines In Cook-Out Fat” value ([1]; Example 10: 20 ppm in meat, control product 38 ppb, figures below 3 ppb not reliable) was 2 ppb. For the same compound, the “Nitrosamines In Cook-Out Fat” value ([1]; Example 11: 10 ppm in meat, control product 38 ppb) was 5 ppb, the “Nitrosamines In Cook-Out Fat” value ([1]; Example 12: 1 ppm in meat, control product 38 ppb) was 16 ppb and the “inhibition of nitrosamine formation” value [1] was “excellent inhibition of nitrosamine formation”.
